The record followed here is patent US10730850B2, “Pyridinylmethyl carbamimidoylcarbamate derivatives and their use as AOC3 inhibitors” (Boehringer Ingelheim International GmbH, priority 2016, dated 2020).

The target in one data set is AOC3 (Homo sapiens (Human), UniProt Q16853). Put plainly: MAO-Glo AOC3 assay (recombinant CHO cells overexpressing AOC3). It is filed as biochemical. An excerpt: The MAO-Glo™ Assay (commercial available from PROMEGA, # V1402) provides a sensitive method for the measurement of monoamine oxidase (MAO) activity (Valley, M. P. et al., 2006, Anal. Biochem. 359: 238-246) from a variety of tissues, biofluids or recombinant expressed or purified enzymes. As substrate a derivate of the beetle luciferin ((4S)-4,5-dihydro-2-(6-hydroxybenzothiazolyl)-4-thiazole-carboxylic acid) is used, which is oxidized at a primary amine moiety. After a spontaneous elimination and a catalyzed esterase reaction, the turnover of the luciferine by the luciferase is recorded as a signal of AOC3 activity.
An aliquot of 3 μL of the compound dilution is added to a 384 well plate (Optiplate, PS, flat bottom, white, PERKIN ELMER, #6007290) with a final DMSO concentration of 6.6%. Recombinant CHO cells, overexpressing the human (1500 cells/well), mouse (1000 cells/well) or rat (500 cells/well) AOC3 enzyme are diluted in reaction buffer and added in a volume of 15 μL to the wells. After incubation for 20 minutes at 37° C., 2 μL of MAO substrate (dissolved in DMSO at 16 mM, adjusted to assay concentration in reaction buffer to a final assay concentration of 20 μM) is added and further incubated for 60 minutes at 37° C. The turnover of the substrate is determined by the addition of 20 μL of the detection-mix which was generated by the addition of reconstitution buffer with esterase (PROMEGA, # V1402) to the luciferine detection reagent (PROMEGA, # V1402). After an incubation period of 20 minutes, the luminescent signal is measured with Envision 2104 Multilabel Reader (PERKIN ELMER).
In the following table the activity expressed as IC50 (nM) of compounds according to the invention is presented wherein the IC50 values are determined in the MAO-Glo™ AOC3 assay as described hereinbefore. The term “Example” refers to the example numbers according to the following experimental section.

The next data set deals with hepatocytes. In words: Metabolic stability assay in hepatocyte suspension. It is filed as in vitro ADME. As to conditions: 1 μM test compound. On the procedure:
The metabolic degradation of the test compound is assayed in a hepatocyte suspension. Hepatocytes (typically cryopreserved) are incubated in an appropriate buffer system (e.g. Dulbecco's modified eagle medium plus 3.5 μg glucagon/500 mL, 2.5 mg insulin/500 mL and 3.75 mg/500 mL hydrocortison) containing 5% species serum. Following a (typically) 30 min preincubation in an incubator (37° C., 10% CO2) 5 μl of test compound solution (80 μM; from 2 mM in DMSO stock solution diluted 1:25 with medium) are added into 395 μl hepatocyte suspension (cell density in the range 0.25-5 Mio cells/mL, typically 1 Mio cells/mL; final concentration of test compound 1 μM, final DMSO concentration 0.05%). The cells are incubated for six hours (incubator, orbital shaker) and samples (25 μl) are taken at 0, 0.5, 1, 2, 4 and 6 hours. Samples are transferred into acetonitrile and pelleted by centrifugation (5 min). The supernatant is transferred to a new 96-deepwell plate, evaporated under nitrogen and resuspended. Decline of parent compound is analyzed by HPLC-MS/MS
CLint is calculated as follows CL_INTRINSIC=Dose/AUC=(C0/CD)/(AUD+clast/k)×1000/60. C0: initial concentration in the incubation [μM], CD: cell density of vital cells [10e6 cells/mL], AUD: area under the data [μM×h], clast: concentration of last data point [μM], k: slope of the regression line for parent decline [h-1].
The calculated in vitro hepatic intrinsic clearance can be scaled up to the intrinsic in vivo hepatic Clearance and used to predict hepatic in vivo blood clearance (CL) by the use of a liver model (well stirred model). CL_INTRINSIC_INVIVO [ml/min/kg]=(CL_INTRINSIC [μL/min/10e6 cells]×hepatocellularity [10e6 cells/g liver]×liver factor [g/kg bodyweight])/1000 CL [ml/min/kg]=CL_INTRINSIC_INVIVO [ml/min/kg]×hepatic blood flow [ml/min/kg]/(CL_INTRINSIC_INVIVO [ml/min/kg]+hepatic blood flow [ml/min/kg])

Molecules are shown by their SMILES. Where two headings read alike, the source gives them in different places. Some results are limits rather than exact numbers.

AOC3, sequence (Q16853 whole entry): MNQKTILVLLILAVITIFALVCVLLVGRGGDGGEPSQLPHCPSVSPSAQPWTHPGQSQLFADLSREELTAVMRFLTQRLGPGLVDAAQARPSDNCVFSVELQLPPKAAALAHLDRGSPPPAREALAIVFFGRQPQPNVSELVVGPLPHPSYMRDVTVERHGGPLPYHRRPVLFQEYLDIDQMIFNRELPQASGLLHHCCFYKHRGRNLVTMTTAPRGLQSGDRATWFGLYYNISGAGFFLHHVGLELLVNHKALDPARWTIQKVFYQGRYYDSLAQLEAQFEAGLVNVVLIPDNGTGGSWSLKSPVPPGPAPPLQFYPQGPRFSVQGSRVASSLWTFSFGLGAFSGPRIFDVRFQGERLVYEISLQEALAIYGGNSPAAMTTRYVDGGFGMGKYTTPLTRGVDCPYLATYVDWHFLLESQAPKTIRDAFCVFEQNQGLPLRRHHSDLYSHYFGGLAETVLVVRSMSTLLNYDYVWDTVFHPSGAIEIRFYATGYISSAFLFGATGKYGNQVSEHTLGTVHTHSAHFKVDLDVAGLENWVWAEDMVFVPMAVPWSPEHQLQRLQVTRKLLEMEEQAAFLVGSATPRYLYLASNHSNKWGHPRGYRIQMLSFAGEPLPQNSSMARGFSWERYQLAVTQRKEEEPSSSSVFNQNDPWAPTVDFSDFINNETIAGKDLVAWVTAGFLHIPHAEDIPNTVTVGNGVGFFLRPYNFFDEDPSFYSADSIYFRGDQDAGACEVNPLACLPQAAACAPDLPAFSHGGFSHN

The IC50 is the concentration that inhibits the measured activity by half. Consider `COC(=O)c1ccc(N2CCN(c3nccc(COC(=O)NC(=N)N)c3F)CC2)nc1` [Example 1.092], for which, on AOC3 (Table 1, read-out: AOC3 IC50), the IC50 worked out at 9 nM. The QH in the data set with hepatocytes (Table 4) is 92%.
On the same counts, the results for `Cc1cccc(N2CCN(c3nccc(COC(=O)NC(=N)N)c3F)CC2)c1` [Example 1.031] are 9 nM and 23%.
As to `CC(=O)N1CCC(C2CN(c3nccc(COC(=O)NC(=N)N)c3F)C2)CC1` [Example 1.047], the IC50 at AOC3 (Table 1, read-out: AOC3 IC50) came out at 8 nM. Besides, in the data set with hepatocytes (Table 4), the QH is less than 4%.
Take `N=C(N)NC(=O)OCc1ccnc(N2CCN(c3ccc(C(F)(F)F)nn3)CC2)c1F` [Example 1.099]: the IC50 at AOC3 (Table 1, read-out: AOC3 IC50) came out at 5 nM. The molecule also returned a QH with hepatocytes (Table 4) of 9%.
The corresponding values for `N=C(N)NC(=O)OCc1ccnc(N2CCC(c3ccncc3)CC2)c1F` [Example 1.010] are 3 nM and 16%.
On the same counts, the results for `N=C(N)NC(=O)OCc1ccnc(N2CCC(N3Cc4ccccc4C3=O)CC2)c1F` [Example 1.089] are 4 nM and 8%.
On the same counts, the results for `N=C(N)NC(=O)OCc1ccnc(N2CCN(c3cccc(F)c3)CC2)c1F` [Example 1.044] are 9 nM and 56%.
As for `COc1ncc(N2CCN(c3cccc(COC(=O)NC(=N)N)n3)CC2)cn1` [Example 1.036], at AOC3 (Table 1, read-out: AOC3 IC50), the IC50 turned out to be 7 nM. The QH in the data set with hepatocytes (Table 4) is reported as 16%.
Take `COc1cnc(C2=CCN(c3nccc(COC(=O)NC(=N)N)c3F)CC2)nc1` [Example 1.064]: the IC50 at AOC3 (Table 1, read-out: AOC3 IC50) worked out at 6 nM. This molecule also showed a QH with hepatocytes (Table 4) of 14%.
On the same counts, the results for `N=C(N)NC(=O)OCc1ccnc(N2CCC(C3CCN(S(N)(=O)=O)CC3)CC2)c1F` [Example 1.104] are 9 nM and 5%.
With `N#Cc1ccc(N2CCN(c3nccc(COC(=O)NC(=N)N)c3F)CC2)nc1` [Example 1.056], the IC50 at AOC3 (Table 1, read-out: AOC3 IC50) came to 4 nM. The molecule also gave a QH with hepatocytes (Table 4) of 12%.
The corresponding values for `COc1ncc(N2CCN(c3nccc(COC(=O)NC(=N)N)n3)CC2)cn1` [Example 1.040] are 7 nM and 7%.
Regarding `N=C(N)NC(=O)OCc1ccnc(N2CCC(c3ccc(F)cc3)CC2)c1F` [Example 1.041], on AOC3 (Table 1, read-out: AOC3 IC50), the IC50 is 9 nM. Also, in the data set on hepatocytes (Table 4), the QH was determined as 12%.
On the same counts, the results for `N=C(N)NC(=O)OCc1ccnc(N2CC=C(c3ccc(F)cc3)CC2)c1F` [Example 1.037] are 9 nM and 20%.
On the same counts, the results for `COc1ccc(C2CCN(c3nccc(COC(=O)NC(=N)N)c3F)CC2)cc1` [Example 1.065] are 5 nM and 40%.
On the same counts, the results for `N=C(N)NC(=O)OCc1ccnc(N2CCC(c3ccc(Cl)cc3)CC2)c1F` [Example 1.074] are 7 nM and 24%.
For the molecule `N=C(N)NC(=O)OCc1ccnc(N2CCN(c3ccncc3)CC2)c1F` [Example 1.011], on AOC3 (Table 1, read-out: AOC3 IC50), the IC50 was found to be 3 nM. For the same molecule, the QH in the data set on hepatocytes (Table 4) is reported as less than 4%.
On the same counts, the results for `CS(=O)(=O)c1ccc(N2CCN(c3nccc(COC(=O)NC(=N)N)c3F)CC2)nc1` [Example 1.103] are 8 nM and less than 4%.
On the same counts, the results for `N=C(N)NC(=O)OCc1ccnc(N2CCN(c3ccc(Cl)cc3)CC2)c1F` [Example 1.077] are 7 nM and 30%.
The corresponding values for `CC(=O)c1ccc(N2CCN(c3nccc(COC(=O)NC(=N)N)c3F)CC2)nc1` [Example 1.085] are 4 nM and 85%.
Consider `N#Cc1cccc(N2CCN(c3nccc(COC(=O)NC(=N)N)c3F)CC2)c1` [Example 1.054], for which the IC50 on AOC3 (Table 1, read-out: AOC3 IC50) is 1 nM. The molecule also yielded a QH with hepatocytes (Table 4) of 14%.
On to `COc1ccc(N2CCN(c3cccc(COC(=O)NC(=N)N)c3F)CC2)cc1` [57 (227), reference compound], for which the IC50 on AOC3 (Table 2, comparative compounds of EP 2 695 881, read-out: IC50) came to 3.9 nM. The same molecule had a QH in the data set on hepatocytes (Table 3, comparative compounds of EP 2 695 881) of 20%.
Consider `COc1cccc(C2=CCN(c3nccc(COC(=O)NC(=N)N)c3F)CC2)c1` [Example 1.058], for which, at AOC3 (Table 1, read-out: AOC3 IC50), the IC50 came to 4 nM. The molecule also displayed a QH in the data set on hepatocytes (Table 4) of 18%.
